Read-outs that look alike come from different tables or passages of the source.
Key:
[1] = target: T1, CB2 receptor (Homo sapiens, UniProt P34972); experiment: Calcium mobilization assay, antagonist mode (CP55940 challenge), CHO expressing CB2; type: cell-based; details: for SI, selectivity index for the CB2, SI = IC50(CB1)/IC50(CB2): antagonist mode
T1 construct: expressed in transfected cells
Procedure: (§1) Chinese hamster ovarian (CHO) cells collected from the American Type Culture Collection were maintained in Ham’s F-12K (Kaighn’s) supplemented with 100 mg/L streptomycin, 100 mg/L penicillin, and 10% fetal bovine serum (FBS) in a humidified atmosphere of 5% CO2 at 37 °C. CHO cells were co-transfected with plasmids encoding CB1 or CB2 and Gα16 by electroporation. To establish stable cell lines, transfected cells were seeded on 10 cm dishes with 40 μg/mL blasticidin and 1 mg/mL G418 in culture medium after 24 h. The selection medium was substituted once every 3 days until colonies formed. A solitary colony was obtained, propagated, and assessed using a calcium mobilization assay to verify the function and expression of the transfected genes.
(§2) 3 × 10^4 cells/well were employed to seed cells onto 96-well plates, which were subsequently incubated throughout the night. Cells were then treated with 2 μM Fluo-4 AM in HBSS (0.3 mM Na2HPO4, 5.4 mM KCl, 4.2 mM NaHCO3, 0.4 mM KH2PO4, 0.5 mM MgCl2, 1.3 mM CaCl2, 137 mM NaCl, 0.6 mM MgSO4, 250 μM sulfinpyrazone, and 5.6 mM D-glucose, pH 7.4) for 45 min at 37 °C. […] Meanwhile, the change of intracellular calcium was measured at an excitation wavelength of 525 and 485 nm. For antagonist mode, the extra dye was washed out and 50 μL of HBSS with test compounds, DMSO (negative control), or AM630 (positive control) was introduced. […] The change of intracellular calcium was captured at an excitation wavelength of 525 and 485 nm. To be noticed, each experiment has been independently replicated three times, with three repetitions and eight gradients each time.
(§3) The collected data were processed with GraphPad Prism software (GraphPad). […] Means ± SEM were computed utilizing this software. The analyses were evaluated by the Student t test. When the p value is smaller than 0.05, the result is statistically significant.

[2] = target: CB1 receptor (Homo sapiens, UniProt P21554); experiment: Calcium mobilization assay, antagonist mode (CP55940 challenge), CHO expressing CB1; type: cell-based
CB1 receptor, sequence (P21554 whole entry): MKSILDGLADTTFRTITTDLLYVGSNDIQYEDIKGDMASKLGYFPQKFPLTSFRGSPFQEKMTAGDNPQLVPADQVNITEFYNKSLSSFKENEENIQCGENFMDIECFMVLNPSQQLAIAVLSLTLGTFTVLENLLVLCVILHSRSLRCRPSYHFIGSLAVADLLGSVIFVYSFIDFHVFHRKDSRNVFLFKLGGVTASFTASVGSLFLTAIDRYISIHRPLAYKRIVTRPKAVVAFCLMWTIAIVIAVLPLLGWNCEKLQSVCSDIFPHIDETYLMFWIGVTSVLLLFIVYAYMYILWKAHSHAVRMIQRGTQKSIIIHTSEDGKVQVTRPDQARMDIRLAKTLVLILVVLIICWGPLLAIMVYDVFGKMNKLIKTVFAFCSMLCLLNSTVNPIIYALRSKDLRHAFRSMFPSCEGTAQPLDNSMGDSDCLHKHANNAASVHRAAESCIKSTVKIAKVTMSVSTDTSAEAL
Procedure: as §1, §2, §3

[3] = target: T1, CB2 receptor; details: representative ligands for active CB2 (Table S7); ref SI refs 3, 6, 7, 10, 11; read-out: Experimental Ki, Active CB2; cited from earlier work
[4] = CB2 IC50, antagonist activity, CHO expressing CB2, three independent assays, mean ± SEM
[5] = CB2 antagonist(μM) replicate 1, single independent experiment, replicate 1
[6] = CB2 antagonist(μM) replicate 2, single independent experiment, replicate 2
[7] = CB2 antagonist(μM) replicate3, single independent experiment, replicate 3
[8] = antagonist activity, CHO expressing CB2, three independent assays, mean ± SEM, read-out: CB2 IC50
[9] = single independent experiment, replicate 1, read-out: CB2 antagonist(μM) replicate 1
[10] = single independent experiment, replicate 2, read-out: CB2 antagonist(μM) replicate 2
[11] = single independent experiment, replicate 3, read-out: CB2 antagonist(μM) replicate3
[12] = antagonist activity, CHO expressing CB1, read-out: CB1 IC50

T1 sequence (P34972 whole entry): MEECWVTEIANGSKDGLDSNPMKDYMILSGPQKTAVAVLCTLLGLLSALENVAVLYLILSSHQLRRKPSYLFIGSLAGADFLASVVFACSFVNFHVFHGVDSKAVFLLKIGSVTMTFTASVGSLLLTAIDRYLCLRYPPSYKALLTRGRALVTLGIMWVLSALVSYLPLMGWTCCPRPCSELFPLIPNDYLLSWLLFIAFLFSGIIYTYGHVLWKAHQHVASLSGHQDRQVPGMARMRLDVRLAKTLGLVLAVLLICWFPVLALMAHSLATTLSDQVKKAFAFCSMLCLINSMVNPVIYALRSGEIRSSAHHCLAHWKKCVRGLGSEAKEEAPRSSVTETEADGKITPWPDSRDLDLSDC

Row | SMILES | IC50 [1, 4] | IC50 [1, 5] | IC50 [1, 6] | IC50 [1, 7] | IC50 [1, 8] | SI, selectivity index for the CB2, SI = IC50(CB1)/IC50(CB2) [1] | IC50 [1, 9] | IC50 [1, 10] | IC50 [1, 11] | IC50 [2, 12] | IC50 [2] | Ki [3]
1 | COc1ccc(C(=O)c2c(C)n(CCN3CCOCC3)c3cc(I)ccc23)cc1 [AM630, reference compound] | 0.34 ± 0.1 µM | 0.153 µM | 0.319 µM | 0.55 µM |  |  |  |  |  |  |  | 
2 | COc1ccc(C=C2SC(=O)N(C(C)C)C2=O)cc1OC(=O)CCCCl [Compound 38, 5-((3-Isopropyl-2,4-dioxothiazolidin-5-ylidene)methyl)-2-methoxyphenyl 4-Chlorobutanoate] |  |  |  |  | 0.4 ± 0.16 µM | >25 | 0.715 µM | 0.256 µM | 0.224 µM | > 10000 nM |  | 
3 | CCCS(=O)(=O)Oc1cc(C=C2SC(=O)N(C(C)C)C2=O)ccc1OC [Compound 39, 5-((3-Isopropyl-2,4-dioxothiazolidin-5-ylidene)methyl)-2-methoxyphenyl Propane-1-sulfonate] |  |  |  |  | 0.33 ± 0.09 µM | 23 | 0.445 µM | 0.115 µM | 0.44 µM | > 10000 nM |  | 
4 | CCCS(=O)(=O)Oc1cc(C=C2SC(=O)N(CC(C)C)C2=O)ccc1OC [Compound 40, 5-((3-Isobutyl-2,4-dioxothiazolidin-5-ylidene)methyl)-2-methoxyphenyl Propane-1-sulfonate] | 2.99 ± 1.42 µM | 2.64 µM | 5.6 µM | 0.728 µM |  | > 3 |  |  |  |  | > 10000 nM | 
5 | CCCCCn1cc(C(=O)C2C(C)(C)C2(C)C)c2ccccc21 [UR-144] |  |  |  |  |  |  |  |  |  |  |  | 1.8 nM

From article PMC10623575, “Discovery of Potent and Selective CB2 Agonists Utilizing a Function-Based Computational Screening Protocol” (ACS Chemical Neuroscience, 2023)
